Paper PMC12094020, “Elucidation of novel turnagainolides and their biosynthetic gene cluster in Bacillus subtilis” (Applied and Environmental Microbiology, 2025)
Entries after “also recorded” stand apart in the source; their conditions may differ.

Legend:
[1] = system: SHIP1 enzyme; conditions: in vitro; cited from earlier work
Source text: (§1) Turnagainolides are a distinctive family of cyclic depsipeptides containing one (E)-3-hydroxy-5-phenylpent-4-enoic acid (Hppa) and four proteinogenic amino acids (Fig. S1). As the first member of this family, compound EGM-556 was discovered from the marine fungus Microascus sp. EGM-556 following the introduction of the histone deacetylase inhibitor suberoylanilide hydroxamic acid to activate a silent biosynthetic gene cluster. However, its stereochemistry was only partially resolved, and no bioactivity was reported ([3]).

[2] = system: S. aureus biofilm; assay: biofilm inhibition experiment (crystal violet); assay type: cell-based; conditions: overnight 37°C, TSB, OD570
Description: S. aureus was cultured overnight in 3 mL of TSB medium. The next morning, the culture was diluted to an OD570 of 0.5 with fresh TSB medium and then further diluted 1,000-fold to achieve a final concentration of 1 × 10^6 CFU/mL. Aliquots of 100 µL of the diluted culture were transferred to individual wells of a 96-well plate. Test compounds were added to the first well of each row at a concentration of 800 µg/mL, followed by twofold serial dilutions across the row. The plate was incubated overnight at 37°C. The medium was subsequently discarded, and the wells were washed three times with PBS (KH2PO4 0.27 g, Na2HPO4 1.42 g, NaCl 8 g, KCl 0.2 g in 1 L deionized water, pH 7.4). Next, 200 µL of methanol was added to each well to fix the biofilm, and the plate was incubated for 15 minutes. The methanol was then removed, and the wells were stained with 0.1% crystal violet for 5 minutes. Excess dye was washed off, and the plate was air-dried. To dissolve the bound stain, 200 µL of glacial acetic acid was added to each well, and the plate was shaken for 20 minutes. The absorbance at OD570 was measured using a microplate reader (Thermo Fisher Scientific, Varioskan LUX).

[3] = system: quorum-sensing in Staphylococcus aureus; conditions: ref 5 (Igarashi et al.); read-out: quorum-sensing inhibition in Staphylococcus aureus, IC50; cited from earlier work
Source text: as §1, with “([3]). Subsequently, turnagainolides A and B were identified from Bacillus sp., ...” for “([3]).”

[4] = system: Candida albicans; conditions: cited from earlier work
Source text: as §1, with “([3]). Subsequently, turnagainolides A and B were identified from Bacillus sp., ...” for “([3]).”

[5] = system: S. aureus; conditions: cited from earlier work
Source text: as §1, with “([3]). Subsequently, turnagainolides A and B were identified from Bacillus sp., ...” for “([3]).”

[6] = system: Escherichia coli; conditions: cited from earlier work
Source text: as §1, with “([3]). Subsequently, turnagainolides A and B were identified from Bacillus sp., ...” for “([3]).”

[7] = system: bacteria; design: method as in doi:10.1016/j.cclet.2016.03.018; conditions: compared among congeners; cited from earlier work

Substance	activation of SHIP1 enzyme [1]	anti-biofilm activity at concentrations above 100 µg/mL [2]	IC50 [3] [nM]	further results
Turnagainolide B [Compound 2]	activates SHIP1; also recorded: activator of the SHIP1 enzyme	slightly stronger inhibition; also recorded: weak inhibition		
Turnagainolide A [Compound 1]	only turnagainolide B activates SHIP1		800	anti-biofilm activity at 200 µg/mL ([2]; 200 µg/mL): no activity; anti-biofilm activity at 400 µg/mL ([2]; 400 µg/mL): weak inhibitory activity
arthroamide [reference compound]			300	
turnagainolide C				anti-microbial activity against Candida albicans [4]: anti-microbial activity; anti-microbial activity against S. aureus [5]: anti-microbial activity; anti-microbial activity against Escherichia coli [6]: anti-microbial activity; antibacterial activity [7]: only congener that exhibits antibacterial activity
Turnagainolide D [Compound 3]		slightly stronger inhibition; also recorded: weak inhibition		
